According to PMC7614683, “A small molecule PI3Kα activator for cardioprotection and neuroregeneration” (Nature, 2023):

Tested on: A549 cells
Test: pAKT S473 western blot / Wes, A549
Assay type: cell-based, human
Procedure: Unless otherwise indicated, western blotting was performed with ECL detection. For time course studies, A549 cells were seeded at 250,000 cells per well in 6-well plates in RPMI (10% FBS + 1 mM Na-Pyruvate + 1% P/S) and allowed to adhere overnight. The next day they were serum-starved for 4 h prior to treatment with 100 nM insulin or 5 μM 1938, for the indicated time (5 min to 48 h) at 37°C, 5% CO2. For 1938 titration assays in MEFs, cells were seeded at 150,000 cells per well in 6-well plates and allowed to adhere overnight. The next day they were serum-starved for 4 h prior to treatment with insulin (1 μM), 1938 (0.2 to 30 μM, final DMSO concentration of 1.5%) or inhibitors (final DMSO concentration of ≤1.5%) for 15 min at 37°C, 5% CO2. Cells were washed twice with cold PBS and lysed using cold RIPA buffer (25 mM Tris.HCl pH 7.6, 150 mM NaCl, 1% NP-40, 1% sodium deoxycholate, 0.1% SDS supplemented with protease/phosphatase inhibitor cocktail from Merck). To remove cell debris, homogenates were spun at 13,000 rpm for 15 min at 4°C and the supernatant fraction recovered. Protein concentration was determined by colorimetric assay (BCA assay, Promega). Protein extracts were resolved by SDS-PAGE, transferred to nitrocellulose membranes, and incubated overnight at 4°C with specific antibodies as follows: anti-vinculin (Sigma #V9131) and the following antibodies from Cell Signaling Technology (CST): pAKT-S473 (CST #9271), pS6-S240/244 (CST #2215), pPRAS40-T246 (CST #2640) and total S6 (CST #2317). Primary ntibodies were used at 1:1000 dilution except anti-vinculin (1:10000). Secondary antibodies are also from Cell Signalling Technology: Anti rabbit IgG, HRP linked Antibody (CST #7074S), Anti mouse IgG, HRP linked Antibody (CST #7076S). Raw and uncropped blots are shown in Supplementary Fig. 1.
A549 cells were seeded at 200,000 cells per well in 24-well plates in DMEM (10% FBS + 1% P/S) and allowed to adhere overnight. The next day, cells were washed once with PBS before addition of serum-free DMEM for 24 h. […]

CCN1CCN(c2ccc(Nc3cc(Nc4cccc5c4N(C(C)=O)CC5)ccn3)cc2)CC1 [Compound 1938]
time of peak pAKT^S473 activation (1938 5 μM, A549 and MCF10A): 30 min | time to induction of pAKT^S473 (1938 5 μM, A549 and MCF10A): 5 min | pAKT^S473 increase (A549): BYL719-sensitive increase in pAKT^S473
